Reference: patent US5821232A, “Synergistic therapeutic compositions and methods” (Pfizer Inc., priority 1995, dated 1998)

Experiments:
Male Hartley guinea pigs = assay: Mean arterial pressure lowering in conscious sodium-depleted guinea pigs, i.v. dosing; type: in vivo, guinea pig; parameters: unit not given beside the values; conditions: trapezoidal method
Procedure: Male Hartley guinea pigs weighing between 250 and 300 g were obtained from Charles River Laboratories, Lakeview, New Jersey. The guinea pigs were allowed to acclimate to their environment for at least two weeks. Then, they were placed on a low sodium diet (Purina Modified Guinea Pig Chow, no sodium added) for 14 days and were given injections of furosemide (Lasix® 2 mg/kg, i.m.) on three non-consecutive days. At least 24 hours prior to experimentation, the animals were anesthetized with xylazine (Rompune, 10 mg/kg, s.c.) and ketamine (Vetalar®, 80 mg/kg, i.m.) and, using aseptic technique, cannulae (PE-50) were implanted into the aorta via the right carotid artery for direct measurement of mean arterial pressure (MAP). Cannulae (PE-50) were also placed into the left jugular vein for intravenous compound administration. Both catheters were exteriorized at the intrascapular region of the animal's back and flushed with a heparinized dextrose solution. To prevent the formation of clots, each cannula was filled with heparin at a concentration of 1000 units/ml. After surgery, an antibacterial, trimethoprim/sulfamethoxazole (Di-Trim®, 30 mg/kg, s.c.), was given to the animals. The animals were allowed to recover with water and no-sodium chow administered ad libitum. On the day of the experiment, each guinea pig was given an additional injection of furosemide (6 mg/kg, i.m.) to accelerate sodium loss and was placed in a sound-proof, ventilated box with one-way glass for observation. Mean arterial pressure was monitored with a Statham 23DB strain gauge pressure transducer previously calibrated using a mercury manometer. The arterial pressure waveform and derived heart rate were continuously recorded on a Grass Model 7D oscillograph. Arterial pressure waveform samples were obtained approximately every 20 seconds using an IBM PS/2 model 30 computer equipped with a custom algorithm designed to calculate mean arterial pressure from the integrated waveform. Values were obtained for a period of at least one hour prior to and 2 hours (usually 4 hours) after dosing. The test compounds were infused intravenously followed by a 250 μl flush with heparinized dextrose solution.
Dose response curves for the renin inhibitor (RI) (0.3 to 3.0 mg/kg, i.v.) and captopril (0.03 to 1.0 mg/kg, i.v.) were obtained (n =4 to 8) in order to quantitate baseline responses to each drug. In experiments where the renin inhibitor and captopril were co-administered, the renin inhibitor was given first immediately followed by captopril. Doses of renin inhibitor and angiotensin converting enzyme inhibitor, when given together, were chosen on the basis of causing submaximal hypotensive effects. Therefore, the contributory effect of each drug could be quantitated by integration and compared to the expected effect to determine whether additive or synergistic responses had occurred.
Employing the procedure described above, the changes in mean arterial pressure (AMAP) for the renin inhibitor (RI), the ACE inhibitor (captopril) and the renin inhibitor (RI), plus the ACE inhibitor (captopril) were obtained for various doses and are shown in Table I, below. The AOC-MAP is the area over the dose response curve for each dose calculated using the trapezoidal method.
The data in Table I were obtained by averaging the A MAP of all animals for each dose prior to calculating the AOC-MAP. When the data contained in Table I was reviewed for the purpose of calculating the AOC-MAP by averaging the area over the dose response curve for each animal per dose, it was discovered that the AOC-MAP for 0.5 mg/kg RI plus 0.05 mg/kg captopril inadvertently reflected the data based on only three of the six subject test animals. Shown below in Table II are the AOC-MAP data for the experiments reported in Table I, which data is now the result of determining the area over the dose response curve for each animal per dose and averaging the AOC-MAP, as well as determining the standard deviation. […]

[1] = Oldham et al., J. Cardiovasc. Pharmacol. 6: 672-677 (1984); cited from earlier work
[2] = Table III, 0.3 mg/kg i.v., average of area per animal
[3] = Table III, 1.0 mg/kg i.v., average of area per animal
[4] = Table I, 0.3 mg/kg i.v., area over curve from MAP change averaged over all animals per dose
[5] = Table I, 1.0 mg/kg i.v., area over curve from MAP change averaged over all animals per dose
[6] = Table II, 0.3 mg/kg i.v., average of area per animal (± standard deviation)
[7] = Table II, 1.0 mg/kg i.v., average of area per animal (± standard deviation)

Molecule	AOC-MAP (Male Hartley guinea pigs; [2])	AOC-MAP (Male Hartley guinea pigs; [3])	AOC-MAP (Male Hartley guinea pigs; Table III, 3.0 mg/kg i.v., average of area per animal)	hypotensive effect of captopril injection during H77 infusion [1]	AOC-MAP (Male Hartley guinea pigs; Table I, 0.03 mg/kg i.v., area over curve from MAP change averaged over all animals per dose)	AOC-MAP (Male Hartley guinea pigs; Table I, 0.10 mg/kg i.v., area over curve from MAP change averaged over all animals per dose)	AOC-MAP (Male Hartley guinea pigs; [4])	AOC-MAP (Male Hartley guinea pigs; [5])	AOC-MAP (Male Hartley guinea pigs; Table II, 0.03 mg/kg i.v., average of area per animal (± standard deviation))	AOC-MAP (Male Hartley guinea pigs; Table II, 0.10 mg/kg i.v., average of area per animal (± standard deviation))	AOC-MAP (Male Hartley guinea pigs; [6])	AOC-MAP (Male Hartley guinea pigs; [7])	AOC-MAP (Male Hartley guinea pigs; Table III, 0.03 mg/kg i.v., average of area per animal)	AOC-MAP (Male Hartley guinea pigs; Table III, 0.10 mg/kg i.v., average of area per animal)	AOC-MAP (Male Hartley guinea pigs; Table I, 3.0 mg/kg i.v., area over curve from MAP change averaged over all animals per dose)	AOC-MAP (Male Hartley guinea pigs; Table II, 3.0 mg/kg i.v., average of area per animal (± standard deviation))
CCCCc1nc(Cl)c(CO)n1Cc1ccc(-c2ccccc2-c2nn[nH]n2)cc1 [Dup 753]	-125 (±31)	-549 (±96)	-1575 (±281)													
C[C@H](CS)C(=O)N1CCC[C@H]1C(=O)O [captopril]	-826 (±128)	-3272 (±350)		small additional hypotensive effect	-99	-289	-1263	-3272	-96 (±16)	-283 (±24)	-1036 (±145)	-3272 (±350)	-96 (±16)	-269 (±18)		
[alpha-R[alpha-R*, beta-S*(S*,S*)]-alpha-hydroxy-beta-[[2-[[2 -(4-morpholin-1-carboxamido)-1-oxo-3 -phenylpropyllaminol-3 -methylthio-l-oxo-propyl]amino]-cyclohexanebutanoic acid, isopropyl ester [RI]							-256	-496			-310 (±47)	-568 (±158)			-1829	-1990 (±408)
